The subject of series [1] is rat. The following applies: Sub-acute repeat dose toxicity; sprague dawley; Injection; Intravenous; dose end: 4 day; group: systemic; systemic / in life observation / clinical signs / drooping eyelids (ptosis) + systemic / in life observation / clinical signs / external ….
Series [2] relates to dog. Conditions: Sub-acute repeat dose toxicity, beagle, Injection, Intravenous, dose end: 5 day, group: systemic.
Series [3] deals with primate. The following applies: Sub-acute repeat dose toxicity; Injection; Intravenous; dose end: 5 day; group: systemic; systemic / in life observation / clinical signs / [other] + systemic / in life observation / clinical signs / compulsive biting or licking….
In series [4] the test system is rat. The following applies: Sub-acute repeat dose toxicity; sprague dawley; Injection; Intravenous; dose end: 5 day; group: systemic; systemic / in life observation / clinical signs / drooping eyelids (ptosis) + systemic / in life observation / clinical signs / reduced ….
In series [5] the test system is dog. Conditions: Chronic toxicity, beagle, Oral, Feed, dose end: 2 year, group: systemic.
The test system of series [6] is rat. Conditions: Carcinogenicity; sprague dawley; Oral; Gavage/Intubation; dose end: 105 week; group: systemic; systemic / clinical chemistry / [other] / [other] + systemic / organ weight / liver / relative to body weight + systemic / organ weight / ….
The subject of series [7] is rat. Conditions: Carcinogenicity, Osborne-Mendel, Oral, Gavage/Intubation, dose end: 104 week, group: systemic.
Series [8] has as its system dog. Conditions: Sub-acute repeat dose toxicity, beagle, Oral, Gavage/Intubation, dose end: 14 day, group: systemic.
Series [9] relates to primate. The following applies: Sub-acute repeat dose toxicity; Oral; Gavage/Intubation; dose end: 28 day; group: systemic; systemic / in life observation / clinical signs / defecation (diarrhea) + systemic / in life observation / food consumption / food ….
Series [10] deals with rat. Conditions: Sub-acute repeat dose toxicity, wistar, Oral, Gavage/Intubation, dose end: 28 day.
Series [11] relates to rat. The following applies: Prenatal developmental toxicity study, other, Oral, Gavage/Intubation, dose end: 15 GD.
For series [12], the system named is rat. The following applies: Subchronic oral toxicity in rodents, wistar, Feed, dose end: 3 month, group: systemic.
For series [13], the system named is rat. The following applies: Combined chronic toxicity/carcinogenicity, wistar, Oral, Feed, dose end: 104 week, group: systemic.
The test system of series [14] is rat. The following applies: Multigenerational reproductive toxicity study, sprague dawley, Oral, Feed, dose end: 2 generation.
Series [15] has as its system rat. Conditions: Combined chronic toxicity/carcinogenicity, wistar, Oral, Feed, dose end: 104 week, group: systemic. This is another data set of the same source.
Another series deals with mouse. Conditions: Carcinogenicity; b6c3f1; Oral; Feed; dose end: 104 week; group: systemic; systemic / in life observation / body weight / body weight.
Setting [16] is: systemic / clinical chemistry / bile acids / bile acids.
[17] abbreviates: systemic / clinical chemistry / bile acids / bile acids + systemic / pathology microscopic / gallbladder / hyperplasia + systemic / ….
[18] abbreviates: systemic / clinical chemistry / bilirubin / total bilirubin + systemic / hematology / anisocytosis / anisocytosis + systemic / hematology / ….
The mark [19] stands for this setting: systemic / clinical chemistry / glucose / glucose.
Setting [20] is: systemic / pathology microscopic / liver / carcinoma + systemic / pathology microscopic / liver / neoplastic nodule + systemic / pathology ….
Where [21] appears, read: systemic / pathology microscopic / thyroid gland / adenoma.
Setting [22] is: systemic / in life observation / body weight / body weight + systemic / in life observation / clinical signs / salivation + systemic / in ….
The mark [23] stands for this setting: systemic / in life observation / body weight / body weight + systemic / pathology microscopic / kidney / vacuolization cytoplasmic + ….
Setting [24] is: group: systemic, systemic / hematology / polychromasia / polychromasia + systemic / in life observation / body weight / body weight + systemic / in life ….
The mark [25] stands for this setting: group: systemic, systemic / pathology microscopic / ovary / degeneration.
Where [26] appears, read: group: developmental, developmental / developmental malformation / bone / full supernumerary + developmental / developmental malformation / general / [other].
Setting [27] is: group: maternal, systemic / in life observation / body weight / body weight gain + systemic / in life observation / food consumption / food consumption.
The mark [28] stands for this setting: group: maternal, systemic / in life observation / body weight / body weight gain + systemic / in life observation / food consumption / food consumption + ….
Setting [29] is: systemic / clinical chemistry / [other] / [other] + systemic / in life observation / body weight / body weight gain.
The mark [30] stands for this setting: systemic / organ weight / kidney / absolute + systemic / organ weight / kidney / relative to body weight + systemic / organ weight / kidney….
[31] abbreviates: systemic / hematology / platelet / platelet + systemic / organ weight / liver / relative to body weight + systemic / pathology microscopic….
The mark [32] stands for this setting: systemic / pathology microscopic / adrenal gland / pheochromocytoma benign + systemic / pathology microscopic / adrenal gland / ….
The mark [33] stands for this setting: group: offspring, developmental / offspring survival late / viability index / viability index + systemic / in life observation / body weight / offspring (pup….
Setting [34] is: group: parental, systemic / clinical chemistry / alpha-2 globulin / alpha-2 globulin + systemic / organ weight / kidney / absolute + systemic / organ weight….
[35] abbreviates: systemic / clinical chemistry / alpha-2 globulin / alpha-2 globulin.
The mark [36] stands for this setting: systemic / clinical chemistry / alpha-2 globulin / alpha-2 globulin + systemic / hematology / platelet / platelet + systemic / organ weight….

Where only a bound is given, the exact number is not on record here.

With `CNC(=O)[C@H]1O[C@@H](n2cnc3c(NCc4cc(Cl)ccc4OCc4cc(C)no4)ncnc32)[C@H](O)[C@@H]1N`, the LEL was found to be 5 mg/kg/day with rat [1], 3 mg/kg/day in the series with dog [2] (setting [16]), 40 mg/kg/day in the series with primate [3] and 5 mg/kg/day in the series with rat [4]. In addition, the LOAEL with rat [1] was more than 5 mg/kg/day; in the series on dog [2] (setting [17]) it was more than 30 mg/kg/day; in the series with primate [3] it was more than 40 mg/kg/day; in the series with rat [4] it was more than 150 mg/kg/day. Besides, the NEL was less than 5 mg/kg/day with rat [1], less than 3 mg/kg/day with dog [2] (setting [16]), 15 mg/kg/day in the series with primate [3] and less than 5 mg/kg/day with rat [4]. Also, the NOAEL with rat [1] was not below 5 mg/kg/day; in the series on dog [2] (setting [17]), not below 30 mg/kg/day; in the series on primate [3], not below 40 mg/kg/day; in the series with rat [4], not below 150 mg/kg/day.
With `CC(O)CO` (stereo not drawn) [1,2-Propylene glycol], in the series with dog [5] (setting [18]), the LOAEL was more than 5000 mg/kg/day and the no observed adverse effect level (NOAEL) is not below 5000 mg/kg/day. In the series on dog [5] (setting [19]), the LEL was 2000 mg/kg/day and the NEL was less than 2000 mg/kg/day.
As to `Clc1cc2c(cc1Cl)Oc1cc(Cl)c(Cl)cc1O2` [2,3,7,8-Tetrachlorodibenzo-p-dioxin], in the series on rat [6], the LEL was 3e-06 mg/kg/day, the lowest observed adverse effect level (LOAEL) is more than 0.0001 mg/kg/day, the NEL was less than 3e-06 mg/kg/day and the no observed adverse effect level (NOAEL) is not below 0.0001 mg/kg/day. In the series on rat [7] (setting [20]), the lowest observed adverse effect level (LOAEL) was more than 0.0005 mg/kg/day and the NOAEL is not below 0.0005 mg/kg/day. In the series on rat [7] (setting [21]), this molecule had an LEL of 1e-05 mg/kg/day and an NEL of less than 1e-05 mg/kg/day.
With `O=c1[nH]c2ccc(S(=O)CCN3CCC(Cc4ccc(F)cc4)CC3)cc2o1` (stereo not drawn) [Besonprodil], the LEL with dog [8] (setting [22]) stood at 30 mg/kg/day; with primate [9], 25 mg/kg/day; with rat [10] (group: maternal, reproductive / reproductive performance / estrous cycle / absent corpora lutea), 200 mg/kg/day; in the series on rat [10] (setting [25]) it was 25 mg/kg/day. Besides, the NEL is less than 30 mg/kg/day in the series with dog [8] (setting [22]), less than 25 mg/kg/day with primate [9] and less than 25 mg/kg/day in the series with rat [10] (setting [25]). For the same molecule, the LOAEL in the series on dog [8] (setting [23]) was more than 300 mg/kg/day; in the series on primate [9] it was more than 500 mg/kg/day; in the series with rat [10] (setting [24]), more than 300 mg/kg/day. Also, the NOAEL with dog [8] (setting [23]) was not below 300 mg/kg/day; with primate [9], not below 500 mg/kg/day; with rat [10] (setting [24]) it was not below 300 mg/kg/day.
Turning to `ClC1C(Cl)C(Cl)C(Cl)C(Cl)C1Cl` (stereo not drawn) [Lindane], the LEL stood at 20 mg/kg/day with rat [11] (setting [26]); 10 mg/kg/day with rat [11] (setting [27]); 0.01 mg/kg/day in the series with rat [12] (setting [29]); 0.05 mg/kg/day with rat [13] (setting [32]); 13.1 mg/kg/day in the series with rat [14] (setting [33]); 1.71 mg/kg/day in the series with rat [14] (setting [34]). Further, in the series with rat [15] (setting [35]), the LEL turned out to be 0.05 mg/kg/day. Also, the lowest-observed-adverse-effect level (LOAEL) in the series with rat [11] (setting [26]) was determined as 20 mg/kg/day; with rat [11] (setting [27]) it was 10 mg/kg/day; in the series with rat [12] (setting [30]), 1 mg/kg/day; in the series with rat [13] (setting [31]) it was 4.81 mg/kg/day; in the series on rat [14] (setting [33]), 13.1 mg/kg/day; in the series with rat [14] (group: parental, systemic / clinical chemistry / alpha-2 globulin / alpha-2 globulin), 1.71 mg/kg/day. Also, the LOAEL with rat [15] (setting [36]) stood at 4.81 mg/kg/day. Also, the NEL is 10 mg/kg/day in the series with rat [11] (setting [26]); 5 mg/kg/day in the series with rat [11] (setting [28]); less than 0.01 mg/kg/day in the series on rat [12] (setting [29]); less than 0.05 mg/kg/day in the series with rat [13] (setting [32]); 1.71 mg/kg/day in the series on rat [14] (setting [33]); 0.0865 mg/kg/day in the series with rat [14] (setting [34]). Also, the NEL with rat [15] (setting [35]) was less than 0.05 mg/kg/day. Besides, the no observed adverse effect level (NOAEL) with rat [11] (setting [26]) turned out to be 10 mg/kg/day; in the series with rat [11] (setting [28]) it was 5 mg/kg/day; with rat [12] (setting [30]) it was 0.2 mg/kg/day; with rat [13] (setting [31]) it was 0.47 mg/kg/day; in the series with rat [14] (setting [33]), 1.71 mg/kg/day; in the series with rat [14] (setting [34]) it was 0.0865 mg/kg/day. For the same molecule, in the series on rat [15] (setting [36]), the no-observed-adverse-effect level (NOAEL) was 0.47 mg/kg/day.
In the series on mouse, `O=C1OC(=O)c2ccccc21` [Phthalic anhydride] returned an LEL of 1800 mg/kg/day, an LOAEL of 1800 mg/kg/day, an NEL of less than 1800 mg/kg/day and a no-observed-adverse-effect level (NOAEL) of less than 1800 mg/kg/day.

As usually defined, the LOAEL is the lowest tested level that showed an adverse finding. One may read the NOAEL as the highest tested level that showed no adverse finding.
